Earlier results, collected in patent US11129837B2, “Salicylate compound composition” (Innovate Pharmaceuticals Limited, priority 2014, dated 2021).

Experiments:
glioma stem cells = details: versus normal glial cells or neural stem cells
rat stomachs = details: for effect on PGE2: given either orally or subcutaneously
[1] = test system: PGE2 synthesis in C6 cells; details: high and low dose
cancer = details: daily aspirin
[2] = human patients
[3] = test system: malignant glioblastoma RG2 cells; details: administered the day before tumour cell inoculation and in established tumours
colorectal cancer = details: daily ingestion over an 8-10 year period, at any dose

| Compound | growth of glioma stem cells in culture (glioma stem cells) | effect on PGE2 (rat stomachs) | apoptosis (A172 glioblastoma cells) | gastric damage (rat stomachs; given orally or subcutaneously) | PGE2 synthesis [1] | reduction of cancer mortality (cancer) | maximum tolerated dose [2] | growth of RG2 glioblastoma cells in rat [3] | reduction of CRC-associated mortality (colorectal cancer) | reduction of the risk of colorectal cancer (colorectal cancer) |
| --- | --- | --- | --- | --- | --- | --- | --- | --- | --- | --- |
| CC(=O)OCC(COC(C)=O)OC(C)=O [Glycerin triacetate, 1,3-Diacetyloxypropan-2-yl acetate] | slowing the growth |  |  |  |  |  |  |  |  |  |
| COc1ccc2c(c1)c(CC(=O)O)c(C)n2C(=O)c1ccc(Cl)cc1 [Indomethacin] |  | decrease PGE2 |  |  |  |  |  |  |  |  |
| CC(=O)Oc1ccccc1C(=O)O [aspirin, 2-(acetoxy)benzoic acid] |  | decrease PGE2 | induced significant apoptosis | only caused damage when given orally | directly inhibited PGE2 synthesis | around 20% | about 4 g | significantly inhibited the growth | 35% | 24% |
